Measured values published in patent US9694401B2, “Method and apparatus for treating perfluoroalkyl compounds” (ThinkVillage-Kerfoot, LLC, priority 2013, dated 2017).
Where a name gives a salt, the structure may show the parent alone. Read-outs that look alike come from different tables or passages of the source.

Key:
[1] = Bench scale groundwater treatment with peroxide-coated ozone nanobubbles (1260 ppmV O3, 10% H2O2); type: physicochemical; conditions: for PFC concentration in groundwater, 1 HR: 1260 ppmV O3, 10% H2O2, 1 HR; for PFC concentration in groundwater, 2 HR: 1260 ppmV O3, 10% H2O2, 2 HR; for % REMOVAL from groundwater: 1260 ppmV O3, 10% H2O2, start to last time point; for PFC concentration in groundwater, START: untreated start (0 minutes)
Description: (§1) On one foam fire-fighting site, samples of groundwater from monitoring well 1 (MW1) and soil samples between MW1 and monitoring well 3 (MW3) were shipped to the laboratory in coolers with blue ice packing to maintain the temperature at less than 4.4° C. (40° F.). Two sets of tests were conducted, groundwater and soil treatment.
Bench scale tests were conducted in a pressurized glass cylindrical reaction cell (17-20 psi) holding a laminar stainless steel spargepoint with a 0.20-micron porous surface. Four liters of groundwater were mixed together. A liter of distilled water as a blank was treated and set aside for analysis. The first liter of groundwater was also set aside as “start” condition (0 minutes). One liter of groundwater from MW1 was added to the cell. An ozone flow of 5 cm^3/sec was added at 1260 ppmV. Peroxide (10%) flow was 8 cm^3/minute and treated for 30 minutes. Pressure was 17-20 psi.
A second liter was added to the chamber and treated for 60 minutes. The blank, original (start), 30 minute, and 60 minute samples were placed in ice for analysis. A final sample (120 minute) was treated with 60 minutes of peroxide, but ozone continued for 120 minutes.

[2] = Bench scale soil treatment with peroxide-coated ozone nanobubbles (2400 ppmV O3), soil fraction; type: physicochemical; conditions: for decomposing the other PF compounds (removal) by the new solution: matrix not given; for removal in the soil series: 2400 ppmV O3, 41.1° C. to 43.3° C.
Description: as §1
(§2) For soil samples, 1000 cm^3 of soil was mixed together and then separated into four 250 cm^3 aliquots. The first was submitted as background (start) condition. The remaining three were treated with a fine bubble-coated ozone bubble solution from the pressurized generator (20-25 psi). The ozone concentration was 2400 ppmV with a flow of 5 cm^3/sec. The peroxide was 10% solution and supplied at 5 cm^3/min flow. The generator was filled with 500 liters of groundwater from the site well (MW1) which was delivered in 50 cm^3 surges to a two-liter flask with the soil under constant stirring action. The subsequent reaction raised the temperature of the soil/liquid solution from 20.6° C. (69° F.) to 22.8° C. (73° F.) after 10 minutes, reaching 41.1° C. (106° F.) after 30 minutes. For the 30-minute treatment, no further bubble solution was added; the flask was placed over water until bubbling ceased or two hours and then placed in chilled water. The overlying groundwater was decanted off, and the underlying semi-solid was placed in a glass jar and chilled for transport for analysis. A similar procedure was followed for the 60- and 120-minute soil aliquots.

[3] = Bench scale soil treatment (2400 ppmV O3), groundwater over soil slurry; type: physicochemical; conditions: for PFC concentration in groundwater over soil slurry, 30 MIN / PFC concentration in groundwater over soil slurry, 60 MIN / PFC concentration in groundwater over soil slurry, 120 MIN / % REMOVAL in groundwater over soil slurry: 2400 ppmV O3, 10% peroxide; for % REMOVAL in groundwater over soil slurry: start to 120 MIN
Description: as §1, §2

[4] = Bench scale groundwater treatment with peroxide-coated ozone nanobubbles (1260 ppmV O3, 10% H2O2); type: physicochemical; conditions: 1260 ppmV O3, 10% H2O2, 3 HR
[5] = cited from earlier work
[6] = cited from earlier work; for Water Solubility: at 25° C.
[7] = cited from earlier work; remark: listed apart in the source
[8] = cited from earlier work; remark: listed apart in the source
[9] = 155 mg/L PFOA, 12 g/L persulfate, 80° C., cited from earlier work
[10] = cited from earlier work; remark: listed apart in the source

Structure (SMILES)	PFC concentration in groundwater, 1 HR [1]	PFC concentration in groundwater, 2 HR [1]	% REMOVAL from groundwater [1] [%]	PFC concentration in groundwater, START [1]	decomposing the other PF compounds (removal) by the new solution [2] [%]	PFC concentration in groundwater over soil slurry, 30 MIN [3]	PFC concentration in groundwater over soil slurry, 60 MIN [3]	PFC concentration in groundwater over soil slurry, 120 MIN [3]	% REMOVAL in groundwater over soil slurry [3] [%]	PFC concentration in groundwater over soil slurry, START [3]	PFC concentration in groundwater, 3 HR [4]	Acidity (pKa) [5]	other results
O=C(O)C(F)(F)C(F)(F)C(F)(F)C(F)(F)F [PFPeA, perfluoropentanoic acid]	27	23	82.1	84	89.8	13	8	6	92.9	84	15	–	–
O=S(=O)(O)C(F)(F)C(F)(F)C(F)(F)C(F)(F)C(F)(F)C(F)(F)C(F)(F)C(F)(F)F [PFOS, perfluorooctane sulfonate]	150	160	82.3	430	–	340	33	44	89.8	430	76	<<0	removal in the soil series [2]: over 99%
O=S(=O)(O)C(F)(F)C(F)(F)C(F)(F)C(F)(F)C(F)(F)C(F)(F)F [PFHxS, perfluorohexane sulfonate]	100	110	86	300	98.1	87	14	8	97.4	300	42	–	–
OO [H2O2, hydrogen peroxide]	–	–	–	–	–	–	–	–	–	–	–	11.7	–
O=C(O)C(F)(F)C(F)(F)C(F)(F)C(F)(F)C(F)(F)F [PFHxA, perfluorohexanoic acid]	110	150	69.2	270	86.2	75	34	23	91.5	270	86	–	–
O=S(=O)(O)C(F)(F)C(F)(F)C(F)(F)C(F)(F)C(F)(F)C(F)(F)C(F)(F)C(F)(F)F [PFOS (Potassium Salt)]	–	–	–	–	–	–	–	–	–	–	–	–	Water Solubility ([6]; filtered seawater): (freshwater), 25 (filtered mg/L; Water Solubility ([6]; freshwater): 370 mg/L; Vapor Pressure at 20° C. [7]: 2.48 × 10^−6 mm Hg
O=C(O)C(F)(F)C(F)(F)C(F)(F)C(F)(F)C(F)(F)C(F)(F)C(F)(F)F [PFOA, perfluorooctanoic acid]	17	13	73.6	34	–	22	4	3	91.2	34	9	0	removal in the soil series [2]: over 97%; Solubility in water ([6]; Table 2): Soluble, 9.5 g/L; Water Solubility ([6]; purified): 9.5 × 10^3 (purified) mg/L; Vapor Pressure at 20° C. [7]: 0.017 mm Hg; Solubility in other solvents [8]: Polar organic solvents; Fluoride ions formed (molar ratio) ([9]; 6 hours): 77.5%; carbon dioxide formed (molar ratio) ([9]; 6 hours): 70.2%; aqueous phase PFOA concentration after treatment ([9]; after 6 hours, 0.6 mg/L = detection limit): less than 0.6 mg/L; PFOA degraded ([10]; 1 M H2O2 and 0.5 mM iron (III), within 150 minutes): 94%; PFOA degradation ([10]; reactions generating O2^− or HO2^− alone): degraded rapidly
